US9169223B2, “Functionalised antifouling compounds and use thereof” (Agency for Science, Technology and Research, priority 2010, dated 2015)
Values after ≈ are worked out from the molar mass of the structure shown. Read-outs that look alike come from different tables or passages of the source.

Legend:
[1] = system: stage II naupliar larvae of the barnacle Amphibalanus amphitrite; assay: Toxicity assay with barnacle nauplii; format: in vivo
Description: (§1) Biological assays were conducted with larval barnacles. Barnacles are dominant and tenacious members of marine fouling communities, and often serve as a substrate for less resistant organisms. Therefore, historically they have been used as a model organism for antifouling studies. To determine the biological response of larvae to test compounds, two bioassays were performed: settlement (using settlement stage cyprids), and toxicity (using nauplii). Procedures followed methods standard in the field, which were first described by Rittschof et al. (1992).
(§2) Stock solutions of each compound were made at 50 mg/ml. Pure compounds were diluted in DMSO and sonicated. Stock solutions were stored at −20° C. in 4 ml amber screw cap vials until use. For bioassays, a small amount of stock solution was diluted in 1 μm filtered seawater (in a glass scintillation vial). The solution was then sonicated for 10 minutes. To obtain the desired concentration range, serial dilutions of the test solution were made. As control, a serial dilution of the equivalent amounts of DMSO in seawater was used.
Toxicity assays employed stage II naupliar larvae of the barnacle Amphibalanus amphitrite (previously Balanus amphitrite: Pitombo, 2004). Assay procedures were modified from Rittschof et al. (1992). Adult A. amphitrite were collected from inter-tidal areas near the Kranji mangrove, Singapore. Larval culture was based on Rittschof et al. (1984). Following collection, nauplii were concentrated for use in bioassays by placing a fiber optic light source at one side of the container, and pipetting from the resulting dense cloud of nauplii.
In order to determine LD50 values for each compound, compounds were tested over a range of concentrations between 0-50 μg/ml. For each assay, each compound at each concentration was tested in triplicate with a single batch of nauplii. The overall assay was conducted twice, using two different batches of nauplii. Two controls were run along with each assay (in triplicate): filtered seawater only, and DMSO at […] (since DMSO was used as a solvent for test compounds, this concentration is equivalent to the concentration of DMSO in the highest test compound concentration).
For assays, approximately 20 nauplii (in 50 μl filtered seawater) were added to 1 ml test solution or control, in a 2 ml glass vial (La Pha Pack® PN 11-14-0544). Assays were run for 22-24 hours at 25-27° C. After this time, living and dead nauplii were counted using a Bogorov tray. Nauplii that were approaching death were scored as dead. Data for all assays was combined and LD50 was calculated (where possible) using a probit analysis (Libermann, 1983). If LD50 could not be calculated using probit analysis, values were extrapolated based on plotted data.

barnacle cyprids = assay: Settlement assay with barnacle cyprids; format: in vivo, Amphibalanus amphitrite; details: for IC50: Amphibalanus amphitrite, 24 h; for TR (LD50/ED50): therapeutic ratio, LD50 (nauplii) / ED50 (cyprids)
Description: as §1, with “nauplii).” for “nauplii). Procedures followed methods standard in the field, which were first described by Rittschof et al. (1992).”
as §2
Nauplii were cultured as described above, and then reared at 25° C. on an algal mixture of 1:1 v/v of Tetraselmis suecica and Chaetoceros muelleri (approximately density 5×10^5 cells per ml). Under these conditions, nauplii typically metamorphose to cyprids in 5 days. Cyprids were aged at 4° C. for 2 days.
Settlement assays were conducted in 7 ml neutral glass vials (Samco® T103/V1; 34×23 mm diameter). For assays, each solution was made at twice the desired final concentration; 0.5 ml of this solution was transferred to vials. To each vial, cyprids were added by transferring 0.5 ml filtered seawater containing 20-40 aged cyprids. As in toxicity assays: each compound at each concentration was run in triplicate with cyprids from a single batch; two controls (filtered seawater and DMSO) were run along with each assays; and the overall assay was conducted twice, using two different batches of cyprids.
Assays were conducted for 24 hours, after which time the number of settled cyprids, the number of free swimming (unsettled) cyprids, and the number of dead cyprids were counted for each vial. Both metamorphosed, juvenile barnacles and cyprids that had committed to settlement (glued themselves to the vial), but had not yet metamorphosed, were counted as ‘settled’. Data was expressed as percent settlement. […] If ED50 could not be calculated using probit analysis, values were extrapolated based on plotted data.

[2] = Amphibalanus amphitrite (barnacle), stage II naupliar larvae, in vivo
[3] = anti-settlement, barnacle cyprids, 24 hours, concentration causing 50% reduction in settlement vs controls, read-out: ED50 (the source's name)
[4] = anti-settlement, barnacle cyprids, 24 hours, concentration causing 50% reduction in settlement vs controls

SMILES | LD50 [1, 2] | IC50 (barnacle cyprids; [3]) | TR (LD50/ED50) (barnacle cyprids) | ED50 (barnacle cyprids; [4]) | LD50 ([1]; toxicity, barnacle nauplii, 22-24 hours, 0-50 μg/ml) | IC50 (barnacle cyprids; read-out: ED50)
CCCCC(C(=O)N1CCCCC1)c1cccc(OC)c1 (centres unmarked) [Compound 15.2] | >25 µg/mL | 1.46 µg/mL (≈ 5.04 µM) | >17.12 | – | – | –
CCCCC(C(=O)N1CCCCC1)c1ccc(OC(C)=O)cc1 (centres unmarked) [Compound 16.4, 4-(1-oxo-1-(piperidin-1-yl)hexan-2-yl)phenyl acetate] | 27.2 µg/mL | 0.23 µg/mL | 118.26 | – | – | –
CCCCC(C(=O)N1CCCCC1)c1ccccc1OC (centres unmarked) [Compound 15.3] | 3.67 µg/mL | 2.85 µg/mL (≈ 9.85 µM) | 1.29 | – | – | –
CCCCC(C(=O)N1CCCCC1)c1ccc(OC)cc1 (centres unmarked) [Compound 15.1, 2-(4-methoxy)phenyl-(1-piperidin-1-yl)hexanone] | 22.95 µg/mL | 0.19 µg/mL (≈ 0.656 µM) | 120.79 | – | – | –
CCCCC(C(=O)N1CCCCC1)c1ccc(O)cc1 (centres unmarked) [Compound 16.5, 2-(4-hydroxyphenyl)-1-(piperidin-1-yl)hexan-1-one] | 17.15 µg/mL | 0.19 µg/mL (≈ 0.69 µM) | 90.26 | – | – | –
C=CCCCCC(C(=O)N(C)C)c1ccc(O)cc1 (centres unmarked) [Compound 17.8, 2-(4-hydroxyphenyl)-N,N-dimethyloct-7-enamide] | 12.46 µg/mL | 4.29 µg/mL (≈ 16.4 µM) | 2.90 | – | – | –
CCCCC(C(=O)N1CCCCC1)c1ccc(OCC(=O)O)cc1 (centres unmarked) [Compound 16.9, 2-(4-(1-oxo-1-(piperidin-1-yl)hexan-2-yl)phenoxy)acetic acid] | >50 µg/mL | > 50 µg/mL | – | – | – | –
CCCCC(C(=O)N1CCCCC1)c1ccc(C(=O)O)cc1 (centres unmarked) [Compound 17.9, 4-(1-oxo-1-(piperidin-1-yl)hexan-2-yl)benzoic acid] | >50 µg/mL | > 50 µg/mL | 1 | – | – | –
C=CCCCCC(C(=O)N(C)C)c1ccc(OC)cc1 (centres unmarked) [Compound 17.3, 2-(4-methoxyphenyl)-N,N-dimethyloct-7-enamide] | 18.61 µg/mL | 2.85 µg/mL (≈ 10.3 µM) | 6.53 | – | – | –
C=CC(=O)Oc1ccc(C(CCCC)C(=O)N2CCCCC2)cc1 (centres unmarked) [Compound 16.11, 4-(1-oxo-1-(piperidin-1-yl)hexan-2-yl)phenyl acrylate] | 6.57 µg/mL | 1.53 µg/mL (≈ 4.64 µM) | 4.29 | – | – | –
CCCCC(C(=O)N1CCCCC1)c1ccccc1 (centres unmarked) [Compound 12.1, reference compound] | 9.11 µg/mL | 1.5 µg/mL (≈ 5.78 µM) | 6.07 | – | – | –
CCCCC(C(=O)N1CCCCC1)c1ccc(OCCOC(C)=O)cc1 (centres unmarked) [Compound 16.8, 2-(4-(1-oxo-1-(piperidin-1-yl)hexan-2-yl)phenoxy)ethyl acetate] | >50 µg/mL | 29.1 µg/mL | 1.72 | – | – | –
CCCCC(C(=O)N1CCCCC1)c1ccc(OCC(=O)OC)cc1 (centres unmarked) [Compound 16.7, Methyl 2-(4-(1-oxo-1-(piperidin-1-yl)hexan-2-yl)phenoxy)acetate] | 24.58 µg/mL | 26.9 µg/mL (≈ 77.4 µM) | 0.91 | – | – | –
CCCCC(C(=O)N1CCCCC1)c1cc(OC)ccc1OC (centres unmarked) [Compound 15.5] | 8.66 µg/mL | 2.16 µg/mL (≈ 6.76 µM) | 4.01 | – | – | –
C=CCCCCC(C(=O)N1CCCCC1)c1ccc(O)cc1 (centres unmarked) [Compound 17.6, 2-(4-hydroxyphenyl)-1-(piperidin-1-yl)oct-7-en-1-one] | 9.82 µg/mL | 2.14 µg/mL (≈ 7.1 µM) | 4.59 | – | – | –
CCCCC(C(=O)N1CCCCC1)c1ccccc1O (centres unmarked) [Compound 17.4] | 14.62 µg/mL | 0.65 µg/mL (≈ 2.36 µM) | 22.49 | – | – | –
CCCCC(C(=O)N(C)C)c1ccc(OC)cc1 (centres unmarked) [Compound 17.2, 2-(4-methoxyphenyl)-N,N-dimethylhexanamide] | >50 µg/mL | 8.69 µg/mL (≈ 34.9 µM) | >5.75 | – | – | –
CCCCC(C(=O)N1CCCCC1)c1cccc(O)c1 (centres unmarked) [Compound 17.5] | 25.14 µg/mL | 3.44 µg/mL (≈ 12.5 µM) | 7.31 | – | – | –
CCCCC(C(=O)N1CCCCC1)c1ccc(OCCO)cc1 (centres unmarked) [Compound 16.6, 2-(4-(2-hydroxyethoxy)phenyl)-1-(piperidin-1-yl)hexan-1-one] | >50 µg/mL | 9.25 µg/mL (≈ 29 µM) | >5.41 | – | – | –
CCCCC(C(=O)N1CCCCC1)c1cc(OC)cc(OC)c1 (centres unmarked) [Compound 15.4] | 8.22 µg/mL | 3.29 µg/mL (≈ 10.3 µM) | 2.5 | – | – | –
CCCCC(C(=O)N1CCCCC1)c1ccc(OC)cc1OC (single isomer, unassigned) [Compound 15.6] | 33.21 µg/mL | – | 3.64 | 9.12 µg/mL (≈ 28.5 µM) | – | –
CCCCC(C(=O)N1CCCCC1)c1ccc(OCC[Si](C)(C)C)cc1 (centres unmarked) [Compound 16.10, 1-(piperidin-1-yl)-2-(4-(2-(trimethylsilyl)ethoxy)phenyl)hexan-1-one] | – | – | >14.33 | – | >50 µg/mL | 3.49 µg/mL (≈ 9.29 µM)
CCCCC(CCCC)C(=O)N1CCCCC1 [Compound 12.2, reference compound] | 9.83 µg/mL | 2 µg/mL (≈ 8.35 µM) | 4.92 | – | – | –
C=CCCCCC(C(=O)N1CCCCC1)c1ccc(OC)cc1 (centres unmarked) [Compound 17.1, 2-(4-methoxyoxyphenyl)-1-(piperidin-1-yl)oct-7-en-1-one] | 9.27 µg/mL | 2.37 µg/mL (≈ 7.51 µM) | 3.91 | – | – | –
CCCCC(C(=O)N(C)C)c1ccc(O)cc1 (centres unmarked) [Compound 17.7, 2-(4-hydroxyphenyl)-N,N-dimethylhexanamide] | >50 µg/mL | 34.1 µg/mL (≈ 145 µM) | >1.46 | – | – | –
CCCCC(C(=O)N1CCCCC1)c1ccccc1CO (single isomer, unassigned) [Compound 16.1] | >50 µg/mL | – | >12.17 | 4.11 µg/mL (≈ 14.2 µM) | – | –
